# Patent publication US20230181475A1, “COMPOSITION COMPRISING METHYLFOLATE” (ALFASIGMA S.P.A., priority 2020, published 2023)
# How the values were obtained:
# [1] = test system: C57Black/6J mice subjected to CUS; experiment: Forced swimming test (FST) in mice subjected to Chronic Unpredictable Stress (CUS); format: in vivo; details: MTHF 3 mg/kg, LAC 30 mg/kg; for effect on immobility time in FST / effects of chronic stress (in words): 3 days of treatment; for Total Immobility Time (sec) + SD: i.p. 3 days of treatment, last 4 minutes of 6 min test, n=8
# Procedure: The animal study was performed in a validate experimental model subject to Chronic Unpredictable Stress (CUS), as described in J H Cryan et al. in J. Neubiorev. 2005, 03, 009, for a period of 4 weeks to induce the depressive phenotype CUS. The CUS allows the depressive phenotype responsive to standard antidepressant treatments to be reproduced in vivo in mammals. The animals were divided in five groups and the group which received the combination of MTHF with LAC was compared with the groups which received MTHF and LAC separately. All the groups were compared with the group which received saline solution and the group which not submitted to CUS.
# The mice were subjected to CUS for 4 weeks, and the drug treatment started at the 3rd week of CUS and maintained until the end of the 4-week treatment.
# To assess the antidepressant effects of the selected product LAC and MTHF the animals were submitted to the Forced swimming test (“FST”) as described in J H Cryan et al. in J. Neubiorev. 2005, 03, 009 and measured the Total Immobility Time expressed in the […] of animals.
# Forty, 7-week-old male C57Black/6J, mice were subjected to CUS (“Chronic Unpredictable Mild Stress”), a validate model that allow the depressive phenotype as described in J H Cryan et al. in J. Neubiorev. 2005, 03, 009.
# The mice were subjected to CUS for 4 weeks, during which different types of stress were applied to the animals twice-a-day in a random and unpredictable manner: one session during the day lasting 1-3 hours, and one session during the night (lasting 12 hours), with at least 6 hours of interval between the two sessions. […]
# To assess the antidepressant behavioural effects of the selected product LAC and MEF the animals were submitted to the Forced swimming test (“FST”) as described in J H Cryan et al. in J. Neubiorev. 2005, 03, 009 and the Total Immobility Time measured in the 5 group of animals.
# During the test the mice were placed individually for 6 minutes in transparent plexiglass cylinders (25 cm high and 22 cm in diameter) filled with warm water (28° C.), in sufficient quantity to prevent the mouse from touching the bottom of the cylinder with hind legs. The animal was videotaped, and then the immobility time (expressed in seconds) was measured during the last 4 minutes of the test.
# BDNF protein = experiment: Western blot of BDNF protein in frontal cortex of CUS mice; format: in vivo; details: 14 days i.p. treatment, MTHF 3 mg/kg, LAC 30 mg/kg
# Procedure: Mice after 4 weeks of CUS and 2 week of pharmacological treatments, as described before, at the end of Week 5 the animals were sacrificed and the level of BDNF protein were measured in Frontal Cortex by western blot.
# Drug treatment started at the 3rd week of CUS and it was maintained for 2 weeks, the study ending at Week 5 for the start of the experiment. Behavioural tests were performed 3 days after the beginning of treatments, while post-mortem protein studies in the mouse brain were performed after 14 days of treatment, at the end of Week 5.
# Mice were treated as described in Example 19. After 4 weeks of CUS and 2 week of pharmacological treatments (as described in Example 19), at the end of Week 5 the animals were sacrificed and the level of BDNF protein were measured in Hippocampus and Frontal Cortex by western blot. Table 28 reports the protein levels of BDNF, a neuronal trophic factor related to chronic stress and depression, in the Frontal Cortex of mice.
# The antibody recognizes the mature form of the 17 KDa BDNF.
Compound,effect on immobility time in FST / effects of chronic stress (in words) [1],Total Immobility Time (sec) + SD [1],"Western blot BDNF in frontal cortex, Optical Density bands + SD (BDNF protein)"
"CC(=O)O[C@H](CC(=O)[O-])C[N+](C)(C)C [LAC, Acetyl L-carnitine]",not antagonised,245.75 + 30.34 sec,113.29 + 28.95
calcium L-5-methyl-(6S)-tetrahydrofolate [MTHF],not antagonised,230 + 14.20 sec,138.46 + 18.26
